Where “and” joins values, the source holds several entries; their conditions need not be identical. Equal values may be shown once. Inconclusive results and toxic doses are left out. The calls were made as follows: active = survival T/C of 150% or more; inactive = T/C below 125% in these data.
Tested on: P388 leukemia ip, CD2F1 mice, survival T/C
Assay: NCI In Vivo Anticancer Drug Screen. Data for tumor model P388 Leukemia (intraperitoneal) in CD2F1 (CDF1) mice
Details: endpoint: median survival time, higher = longer survival
Method in brief: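 Mice carrying the transplanted tumor received test compound or vehicle. Survival was recorded in each group, and the value is the treated-group measurement divided by that of the vehicle-treated control group.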

[1] = dose: 12.5 mg/kg/injection, schedule: Q01DX005 (ip), vehicle: saline
[2] = dose: 50.0 mg/kg/injection, schedule: Q01DX005 (ip), vehicle: saline
[3] = dose: 100.0 mg/kg/injection, schedule: Q01DX005 (ip), vehicle: saline
[4] = dose: 200.0 mg/kg/injection, schedule: Q01DX005 (ip), vehicle: saline
[5] = dose: 12.5 mg/kg/injection, schedule: Q01DX009 (ip), vehicle: saline with Tween-80
[6] = dose: 25.0 mg/kg/injection, schedule: Q01DX009 (ip), vehicle: saline with Tween-80
[7] = dose: 50.0 mg/kg/injection, schedule: Q01DX009 (ip), vehicle: saline with Tween-80
[8] = dose: 100.0 mg/kg/injection, schedule: Q01DX009 (ip), vehicle: saline with Tween-80
[9] = dose: 200.0 mg/kg/injection, schedule: Q01DX009 (ip), vehicle: saline with Tween-80
[10] = dose: 60.0 mg/kg/injection, schedule: Q01DX005 (ip), vehicle: saline with Tween-80
[11] = dose: 120.0 mg/kg/injection, schedule: Q01DX005 (ip), vehicle: saline with Tween-80
[12] = dose: 240.0 mg/kg/injection, schedule: Q01DX005 (ip), vehicle: saline with Tween-80
[13] = dose: 15.0 mg/kg/injection, schedule: Q01DX005 (ip), vehicle: saline with Tween-80
[14] = dose: 60.0 mg/kg/injection, schedule: Q01DX005 (ip), vehicle: Klucel (hydroxypropylcellulose) (HPC)
[15] = dose: 120.0 mg/kg/injection, schedule: Q01DX005 (ip), vehicle: Klucel (hydroxypropylcellulose) (HPC)
[16] = dose: 60.0 mg/kg/injection, schedule: Q01DX005 (ip), vehicle: saline
[17] = dose: 120.0 mg/kg/injection, schedule: Q01DX005 (ip), vehicle: saline
[18] = dose: 50.0 mg/kg/injection, schedule: Q04DX003 (ip), vehicle: saline with Tween-80
[19] = dose: 100.0 mg/kg/injection, schedule: Q04DX003 (ip), vehicle: saline with Tween-80
[20] = dose: 100.0 mg/kg/injection, schedule: Q01DX001 (ip), vehicle: Klucel (hydroxypropylcellulose) (HPC)
[21] = dose: 200.0 mg/kg/injection, schedule: Q01DX001 (ip), vehicle: Klucel (hydroxypropylcellulose) (HPC)

Measured: T/C

CNC(=O)N(N=O)c1[nH]c(=O)ncc1Br
inactive: dose: 50.0 mg/kg/injection, schedule: Q01DX005 (ip), vehicle: saline + Tween-80 + alcohol 104 % of control | dose: 100.0 mg/kg/injection, schedule: Q01DX005 (ip), vehicle: saline + Tween-80 + alcohol 108 % of control | dose: 200.0 mg/kg/injection, schedule: Q01DX005 (ip), vehicle: saline + Tween-80 + alcohol 118 % of control

CC/C(=C(\CC)c1ccc(OCCN(C)C)cc1)c1ccc(OCCN(C)C)cc1
inactive: dose: 6.25 mg/kg/injection, schedule: Q01DX005 (ip), vehicle: saline 104 % of control | [1] 98 % of control

OCC12CC=CCC1C1CC=CCC1O2 (stereo not given)
inactive: [2] 101 % of control | [3] 99 % of control | [4] 103 % of control

Nc1[nH]nc(Nc2cccc(Cl)c2Cl)c1C(=O)c1cccs1
inactive: [5] 101 % of control | [6] 99 % of control | [7] 99 % of control and 100 % of control | [8] 96 % of control | [9] 98 % of control

COc1ccccc1/C(C)=N/O
inactive: [10] 100 % of control | [11] 95 % of control | [12] 103 % of control

Cc1c2ccn(CCCCCCCCn3ccc4c(C)c5nc6ccccc6c5c(C)c4c3)cc2c(C)c2c1nc1ccccc12
inactive: dose: 3.13 mg/kg/injection, schedule: Q04DX003 (ip), vehicle: distilled water + Tween-80 118 % of control and 121 % of control | dose: 25.0 mg/kg/injection, schedule: Q04DX003 (ip), vehicle: distilled water + Tween-80 123 % of control

CNC(=S)/N=c1/sc([N+](=O)[O-])c(C)n1C
inactive: dose: 1.87 mg/kg/injection, schedule: Q01DX005 (ip), vehicle: saline with Tween-80 94 % of control | dose: 3.75 mg/kg/injection, schedule: Q01DX005 (ip), vehicle: saline with Tween-80 92 % of control | dose: 7.5 mg/kg/injection, schedule: Q01DX005 (ip), vehicle: saline with Tween-80 99 % of control and 97 % of control | [13] 95 % of control

CCCCCCCCC(O)C#CC(N)=O (stereo not given)
inactive: dose: 100.0 mg/kg/injection, schedule: Q01DX001 (ip), vehicle: saline with Tween-80 99 % of control | dose: 200.0 mg/kg/injection, schedule: Q01DX001 (ip), vehicle: saline with Tween-80 90 % of control

C=CCn1c(-c2ccccc2Cl)n[nH]c1=S
inactive: [7] 102 % of control | [8] 95 % of control | [9] 99 % of control

CC(=O)c1c(O)c2cccc3c2n(c1=O)CCC3
inactive: [14] 96 % of control | [15] 97 % of control

CCN(CC)C(=S)N1C(=O)C2C3CCC(O3)C2C1=O (stereo not given)
inactive: [13] 101 % of control | dose: 30.0 mg/kg/injection, schedule: Q01DX005 (ip), vehicle: saline with Tween-80 104 % of control | [10] 110 % of control

COC(=O)c1nnn(-c2ccccc2C(C)C)c1C(=O)c1ccccc1
inactive: [10] 94 % of control | [11] 109 % of control | [12] 104 % of control

CCOC(=O)N(CCN(C(=O)OCC)C1CCCCC1)C1CCCCC1
inactive: [10] 99 % of control | dose: 100.0 mg/kg/injection, schedule: Q04DX002 (ip), vehicle: saline with Tween-80 100 % of control | [11] 99 % of control | dose: 200.0 mg/kg/injection, schedule: Q04DX002 (ip), vehicle: saline with Tween-80 90 % of control | [12] 89 % of control | dose: 400.0 mg/kg/injection, schedule: Q04DX002 (ip), vehicle: saline with Tween-80 89 % of control

Cc1ccc(C)c(CN(CCO)CCO)c1
inactive: [16] 109 % of control | [17] 102 % of control

Cc1ccc(C[N+](C)(C)C)cc1
inactive: [5] 107 % of control | [6] 100 % of control | [7] 100 % of control and 106 % of control

CCC1(CC2CCCN(C)C2)c2ccccc2Sc2ccccc21 (stereo not given)
inactive: [1] 98 % of control | dose: 25.0 mg/kg/injection, schedule: Q01DX005 (ip), vehicle: saline 98 % of control | [2] 91 % of control

CC(=O)N(C)C(C(=O)N1CC(C)CC1C(=O)N(C)C1C(=O)NC(CC(C)C)C(=O)N2CC(C)CC2C(=O)NC(CC(C)C)C(=O)N(C)C(C(C)C)C(=O)N2CCCC2C(=O)N(C)C(CC(C)C)C(=O)NCC(=O)OC1C)C(C)C (stereo not given)
inactive: dose: 3.12 mg/kg/injection, schedule: Q01DX009 (ip), vehicle: Klucel (hydroxypropylcellulose) (HPC) 103 % of control | dose: 6.25 mg/kg/injection, schedule: Q01DX009 (ip), vehicle: Klucel (hydroxypropylcellulose) (HPC) 97 % of control | dose: 12.5 mg/kg/injection, schedule: Q01DX009 (ip), vehicle: Klucel (hydroxypropylcellulose) (HPC) 100 % of control | dose: 18.75 mg/kg/injection, schedule: Q01DX009 (ip), vehicle: Klucel (hydroxypropylcellulose) (HPC) 93 % of control | dose: 25.0 mg/kg/injection, schedule: Q01DX009 (ip), vehicle: Klucel (hydroxypropylcellulose) (HPC) 93 % of control

O=C(/C=C/c1ccccc1)c1ccc(O)cc1
inactive: dose: 6.25 mg/kg/injection, schedule: Q01DX009 (ip), vehicle: saline with Tween-80 103 % of control | [5] 109 % of control | [6] 110 % of control | [18] 98 % of control | [19] 98 % of control | dose: 400.0 mg/kg/injection, schedule: Q04DX003 (ip), vehicle: saline with Tween-80 114 % of control

Cn1c([N+](=O)[O-])cnc1/C=C1\CCc2cc(OCCN3CCCC3)ccc2C1=O
inactive: [5] 90 % of control | [6] 93 % of control

CCOC1=CS(C)(=O)=NC(SC)=C1C#N (stereo not given)
inactive: dose: 50.0 mg/kg/injection, schedule: Q01DX001 (ip), vehicle: Klucel (hydroxypropylcellulose) (HPC) 99 % of control | [20] 105 % of control | [21] 99 % of control

Cc1ccc(S(=O)(=O)OCC(C)(C)CC#N)cc1
inactive: dose: 100.0 mg/kg/injection, schedule: Q04DX003 (ip), vehicle: Klucel (hydroxypropylcellulose) (HPC) 96 % of control | dose: 200.0 mg/kg/injection, schedule: Q04DX003 (ip), vehicle: Klucel (hydroxypropylcellulose) (HPC) 96 % of control | dose: 400.0 mg/kg/injection, schedule: Q04DX003 (ip), vehicle: Klucel (hydroxypropylcellulose) (HPC) 100 % of control

COC(=O)c1nc(N)nc(C(=O)OC)c1C(=O)/C=C/c1ccccc1
inactive: [10] 100 % of control | [11] 98 % of control

CC(C)(C)OC(=O)NC(CCC(N)=O)C(=O)O (stereo not given)
inactive: [2] 104 % of control | [3] 104 % of control | [4] 103 % of control

COC(=O)C1(CC(C)=O)NC(=S)NC(=O)C1C#N (stereo not given)
inactive: [16] 100 % of control | [17] 96 % of control | dose: 240.0 mg/kg/injection, schedule: Q01DX005 (ip), vehicle: saline 97 % of control

C=C(C)CC1(CC)C(=O)NC(=S)NC1=O
inactive: [18] 104 % of control | [19] 104 % of control | dose: 200.0 mg/kg/injection, schedule: Q04DX003 (ip), vehicle: saline with Tween-80 86 % of control

CCOC(=O)c1cnc2cc(C(F)(F)F)ccc2c1Nc1ccc2c(c1)OCO2
inactive: [14] 100 % of control | [15] 102 % of control | dose: 240.0 mg/kg/injection, schedule: Q01DX005 (ip), vehicle: Klucel (hydroxypropylcellulose) (HPC) 98 % of control

O=C1Cc2ccccc2C2CC12 (stereo not given)
inactive: [20] 98 % of control | [21] 113 % of control | dose: 400.0 mg/kg/injection, schedule: Q01DX001 (ip), vehicle: Klucel (hydroxypropylcellulose) (HPC) 111 % of control

Reference: PubChem BioAssay AID330 (DTP/NCI, 2004)
